The results in this text go back to a melting point compilation (Tetko et al.).

Take `CC(C)(C)OC(=O)CC(NC(=O)OCC1c2ccccc2-c2ccccc21)C(=O)O` (stereo not drawn): the melting point fell in the range of 147 to 151 °C. In the case of `S=C(n1ccnc1)n1ccnc1` it was 96 to 103 °C; in that of `O=C(OCCOc1ccc(Cl)cc1Cl)c1ccccc1`, 66 °C. In the case of `O=C(O)c1cc(C(=O)O)cc(C(=O)O)c1` it was 380 °C. Take `O=C(c1ccc(Cl)cc1)c1cc2c(cc1Br)OCCO2`: the melting point is 129 to 130 °C. The result for `COc1ccccc1C1CCN(c2ccc(C=O)cc2[N+](=O)[O-])CC1` reads 116 to 118 °C; that for `Brc1ccc(Oc2ccccc2)c(Br)c1`, under 20 °C; that for `CCCCC(C)CC(O)C=CC1C(O)CC(=O)C1CCCCC=CC(=O)O` (stereo not drawn), 97 °C. Turning to `COc1ccc(Oc2ccc(C(N)=NO)cc2[N+](=O)[O-])cc1`, the melting point is 174 to 177 °C. The result for `CC(C)CC(C)(N)P(=O)(O)O` (stereo not drawn) reads 234 to 238 °C; that for `Cc1oc(-c2ccccc2)cc1C(=O)O`, 183 °C; that for `Cc1ccc(C(=O)C2=NOC3C(=O)N(c4ccc(C(=O)O)cc4)C(=O)C23)cc1` (stereo not drawn), 201 °C. In the case of `Cc1nc2ccccc2n1CCCC(=O)O` it was 234 to 238 °C; in that of `O=C(O)CC1CC(=O)OC1C(=O)O` (stereo not drawn), 159 °C; in that of `CN(C)c1ccccc1N(C)C`, 8.9 °C. In the case of `O=C1Cc2c1ccc1ccccc21` it was 72 °C; in that of `COc1ccc2[nH]cc(CCN(C(C)C)C(C)C)c2c1`, 181 °C; in that of `O=C1NC2CC=CCC12` (stereo not drawn), 122 °C. The molecule `O=C(OCc1ccccc1)c1sc(Cl)nc1C(F)(F)F` came in with a melting point of 52 °C. In turn, `COc1ccc(C=CC(=O)c2ccc3ccccc3c2)cc1` had a melting point of 92 to 95 °C. `Cc1ccc(C(=O)C2=NOC3C(=O)N(c4cc(Cl)ccc4Cl)C(=O)C23)cc1` (stereo not drawn) returned a melting point of 191 °C. The result for `OCc1sc(-c2ccccc2)nc1-c1ccccc1` reads 125 °C; that for `CC(=O)N(C(C)=O)c1ccccc1`, 37.5 °C; that for `COc1ccc(OC)c(C(C)=O)c1O`, 49 to 51 °C. The result for `CC1(c2ccc(Oc3ccccc3)cc2)OC(=O)N(Nc2ccccc2)C1=O` (stereo not drawn) reads 142 °C; that for `OCCN1CCN(c2nc3ccc(Cl)cc3s2)CC1`, 128 to 130 °C.

Take `O=C1OC(=O)c2ccc(Cl)c3cccc1c23`: the melting point is 207 to 210 °C.

The molecule `C=CCCCCCCC(=O)O` gave a melting point of 5 °C. Consider `CCCC1C2C(=O)N(c3ccccc3)C(=O)C2ON1c1ccccc1` (stereo not drawn), for which the melting point was 107 to 108 °C.

Molecule `CCC(=O)c1ccco1` gave a melting point of 28 °C. Regarding `O=C(O)c1ccnc(Cl)c1`, the melting point amounted to 231 °C. The result for `O=C1CCC(F)(F)CC1` reads 39 °C; that for `Ic1ccc(-c2ccno2)cc1`, 139 to 140 °C; that for `O=c1c(Cl)c[nH]cc1Cl`, 322 °C.

Molecule `CS[C@H]1C(=O)[C@@H]2CC[C@]3(C)[C@@H](OC(C)(C)C)CC[C@]13[C@H]2Cl` came in with a melting point of 108 °C. Turning to `C=C(C)C1Cc2c(ccc3c2OC2COc4cc(OC)c(OC)cc4C2C3=O)O1` (stereo not drawn), the melting point is 176 °C. `Cc1cc(C)c2c(c1)CC1CCCCN1C2=O` (stereo not drawn) yielded a melting point of 102 °C. On to `Cc1cc(C(=O)CBr)ccc1Cl`, for which the melting point fell in the range of 56 to 57 °C.

As for `O=C1C=C(NCCc2ccccc2)C(=O)c2ccccc21`, the melting point turned out to be 141 °C. As to `Nc1cc(N)c(/C=C/c2ccccc2)cc1/C=C/c1ccccc1`, the melting point amounted to 201 °C.

`CC(=O)OC1=c2ccc([N+](=O)[O-])cc2=NC1=c1ccc(=C2N=c3cc([N+](=O)[O-])ccc3=C2OC(C)=O)cc1` registered a melting point of 280 °C.

`Nc1cc(C(F)(F)F)cc(Br)c1N` displayed a melting point of 60 to 62 °C. The result for `O=C(OCc1ccccc1)N1c2ccccc2CC1CO` (stereo not drawn) reads 67 to 71 °C; that for `CC(=O)OCCOCCOCCOC(C)=O`, -50 °C. In the case of `CN1CCN=C1C(C1=NCCN1C)C1=NCCN1C` it was 241 to 243 °C; in that of `CC12CCC(C(C(=O)c3cccc4ccccc34)C1=O)C2(C)C` (stereo not drawn), 104 °C; in that of `Cc1cnc2c(C(=O)O)c(Cl)ccc2c1`, 253 °C.

In the case of `Cc1cc(C)n(N=Cc2ccccc2)c(=O)c1C#N`, the melting point is 194 to 195 °C.

Regarding `N#C/C(=C/c1cccs1)c1nc(-c2ccc(Cl)cc2)cs1`, the melting point was 170 °C. In turn, `Cc1nc2ccccc2[nH]c(=O)c1=NNc1cc(-c2ccccc2)n[nH]1` registered a melting point of 160 °C. The result for `CCCCCCCCCCCCCCCc1cccc(O)c1` reads 53.5 °C; that for `CC(=O)N1N=C(c2ccc3ccccc3c2)CC1c1ccccc1Cl` (stereo not drawn), 173 °C; that for `OCc1cc(-c2ccco2)[nH]n1`, 159 °C. In the case of `O=C(O)Cc1noc2ccccc12` it was 123 to 125 °C; in that of `Clc1nc(Cl)nc(Cl)n1`, 154 °C. In turn, `CC(=O)Oc1ccc(N=C2C=CC(=O)C=C2)cc1` had a melting point of 111 to 116 °C.

`NCC(O)CN` yielded a melting point of 43 °C. The result for `O=C(Nc1ccc(Br)cc1)c1c(O)cccc1O` reads 229 °C; that for `O=c1[nH]cnc2c1cnn2C1CCCCC1`, 251 to 252 °C; that for `CC(C)(C)S(=O)(=O)c1cnc(N2CCOCC2)nc1N`, 196 to 198 °C. Take `COc1cc(Br)c(CC#N)cc1OC`: the melting point lay in the range of 87 to 89 °C. The result for `CC(C)COC(=O)c1ccc(O)cc1` reads 76 °C. In the case of `Cc1ccc(C(=O)C(F)(F)C(F)(F)F)cc1` it was 4 °C. The result for `O=S(=O)(Cl)Cc1ccc(Cl)c(Cl)c1` reads 65 to 68 °C; that for `COc1ccccc1C(=O)c1cc2c(cc1Br)OCCO2`, 95 to 97 °C; that for `Cc1ccc(C(=O)CBr)c(C)c1`, 44 °C. For the molecule `CC12CCC(C(C(=O)Oc3ccccc3)C1)C2(C)C` (stereo not drawn), the melting point was 41 °C. In the case of `NC(=O)C1CCN(CCCN2c3ccccc3Sc3ccc(Cl)cc32)CC1` it was 139 °C; in that of `CCSc1sc(C#N)c2c1C(=O)CC(C)(C)C2`, 150 to 153 °C; in that of `O=S1(=O)CC(O)C(Cl)C1` (stereo not drawn), 163 to 165 °C.

The molecule `CCOC(=O)C(C=Cc1cccc(C=CC(C(=O)OCC)C(=O)OCC)c1)C(=O)OCC` came in with a melting point of 100 to 102 °C. In turn, `O=C(C=Nc1ccccc1)c1cc(C(=O)C=Nc2ccccc2)cc(C(=O)C=Nc2ccccc2)c1` showed a melting point of 340 °C.

Molecule `CCOC(=O)c1cnc2ccc(OC(F)(F)F)cc2c1O` displayed a melting point of 297 to 305 °C. The molecule `COc1ccc(OC)c(C#N)c1` had a melting point of 82 °C. In the case of `O=C(O)c1cc(S(=O)(=O)F)c2ccccc2c1O` it was 300 °C. Molecule `CC(=O)OOC(=O)c1ccccc1` had a melting point of 37 °C. `Clc1cccc2c(-c3ccccc3)c(-c3ccccc3)[nH]c12` displayed a melting point of 97 to 98 °C. The result for `O=C1c2ccccc2C(=O)C2CC3=C(CC=CC3)CC12` (stereo not drawn) reads 155 °C; that for `CC(=O)OC1(C(C)=O)CCC2C3C=C(Cl)C4=CC(=O)CCC4(C)C3CCC21C` (stereo not drawn), 213 °C. For the molecule `Nc1ccc(Cc2ccc(N)c(Cl)c2)cc1Cl`, the melting point amounted to 110 °C.

In turn, `O=C1Nc2ccccc2CCC1Br` (stereo not drawn) had a melting point of 164 to 168 °C.

As for `CCCCCCCCC(C(=O)O)C(=O)O`, the melting point turned out to be 116 °C. The result for `CC=Cc1cccc(OC)c1O` reads 81 °C; that for `N#CC(=Cc1ccccc1)C(N)=O`, 155 °C; that for `Nc1cccnc1Cl`, 78 °C. `CC(=O)c1c(-c2ccc(Cl)cc2)noc1C` came in with a melting point of 56 to 59 °C. The result for `O=CC(Cl)=Cc1ccccc1` reads 20 to 22 °C. Molecule `Cc1cc(CCl)nn1C` yielded a melting point of 63 to 66 °C. In the case of `Cc1nc(-c2ccccc2)sc1N=C=O` it was 82 to 83 °C. In turn, `CCCCOc1ccc(N=Nc2ccc(N)nc2N)cn1` had a melting point of 129 °C.

For the molecule `COc1cc(C)nc(-n2nc(C)cc2OC)n1`, the melting point is 91 °C. In turn, `CC1(C)OC(=O)C(=NNc2cccc([N+](=O)[O-])c2)C(=O)O1` showed a melting point of 192 °C. In the case of `O=C(O)CCc1ccc(CCC(=O)O)cc1` it was 229 to 233 °C; in that of `Nc1nn2c(-c3ccccc3)cc(=O)[nH]c2c1/N=N/c1ccccc1`, 265 °C; in that of `COc1ccc(OCc2ccccc2)cc1`, 71 to 73 °C. The molecule `O=C(O)c1cccc(C(=O)O)n1` displayed a melting point of 248 to 250 °C. In the case of `O=C(c1ccc(C(F)(F)F)cc1)c1cccc(C(F)(F)F)c1` it was 94 to 98 °C; in that of `O=NN(CCCl)C(=O)NC1CCCCC1`, 90 °C. The result for `NCCCN1CCOCC1` reads -15 °C; that for `c1ccc2c(c1)OCCOCCOCCO2`, 48 to 50 °C.

With `CCOC(=O)C(=O)CC(=O)c1cccs1`, the melting point fell in the range of 38 to 40 °C.

`O=C(NCCCc1ccccc1)c1cc([N+](=O)[O-])cc([N+](=O)[O-])c1`: the melting point amounted to 123 °C. In the case of `N=C(N)N[C@@H](Cc1ccccc1)C(=O)O` it was 250 to 253 °C; in that of `CCNc1nc(Cl)nc(N(CC)CC)n1`, 102 °C; in that of `O=C(c1ccc([N+](=O)[O-])cc1)c1noc(-c2ccc(Cl)cc2)c1S(=O)(=O)c1ccccc1`, 210 °C. With `Cc1cc(CO)n(C)n1`, the melting point lay within 52 to 54 °C. The result for `CCCCNC(=O)C(C(F)(F)F)C(F)(F)F` reads 94 °C; that for `CN(C(=O)N(C)c1ccccc1)c1ccccc1`, 122 °C.

Broadly, the melting point is the temperature, or range, at which the solid turns liquid.
